Measured values taken from publication PMC8069799, “Alpha-Glucosidase Inhibitory Diterpenes from Euphorbia antiquorum Growing in Vietnam” (Molecules, 2021).

Columns and labels:
[1] = target: Saccharomyces cerevisiae α-glucosidase (E.C 3.2.1.20); test: Alpha-glucosidase inhibition assay; type: biochemical; conditions: 0.2 U/mL enzyme, 5.0 mM pNPG, pH 6.9 sodium phosphate buffer, 37 °C, triplicate; read-out: Alpha-glucosidase inhibitory activity IC50
Description: The alpha-glucosidase (0.2 U/mL) and substrate (5.0 mM pNPG) were dissolved in 100 mM pH 6.9 sodium phosphate buffer. The inhibitor (50 µL) was preincubated with alpha-glucosidase at 37 °C for 20 min, and then the substrate (40 µL) was added to the reaction mixture. The enzymatic reaction was carried out at 37 °C for 20 min and stopped by adding 0.2 M Na2CO3 (130 μL). Enzymatic activity was quantified by measuring absorbance at 405 nm (CLARIOstar plus, BMG LABTECH, Ortenberg, Germany). All samples were analyzed in triplicate at five different concentrations around the IC50 values, and the mean values were retained. The inhibition percentage (%) was calculated by the following equation:Inhibition (%) = [1 − (Asample/Acontrol)] × 100.(1)

[2] = tested on: alpha-glucosidase; test: Inhibitory type assay of 3 on alpha-glucosidase (Lineweaver–Burk plots, secondary plots); type: biochemical, yeast
Description: In order to examine the inhibition mechanism of 3, their activity was measured at the different concentration of 4-nitrophenyl […] (pNPG).
The mechanisms of inhibition of alpha-glucosidase by 3 were determined by Lineweaver–Burk plots (Microsoft Excel 2010, Redmond, WA, USA), using methods similar to those reported in the literature. Enzyme inhibition due to various concentrations of the 3 were evaluated by monitoring the effects of different concentrations of the substrate. For Lineweaver–Burk double reciprocal plots 1/enzyme velocity (1/V) vs. 1/substrate concentration (1/[S]), the inhibition type was determined using various concentrations of pNPG (1 mM, 2 mM, and 4 mM) as a substrate in the presence of different concentrations of the test compound (0, 13.8, 27.7, and 55.5 µM). The experiments were carried out in three replicates. The mixtures were incubated at 37 °C and the optical density was measured at 405 nm every 1 min for 30 min with the Clariostar Labtech microplate reader (Ortenberg, Germany). Optimal concentrations of the tested compound were chosen based on the IC50 value. The inhibition constants were obtained graphically from secondary plots (Microsoft Excel 2010, Redmond, WA, USA).

SMILES | IC50 [1] | inhibition type ([2]; Lineweaver–Burk plots, Vmax decreased while Km remained constant) | Ki ([2]; pNPG 1, 2, 4 mM, inhibitor 0, 13.8, 27.7, 55.5 µM, secondary plot of slope vs. inhibitor concentration, read-out: inhibition constant (Ki))
CC1(C)C(O)CC(O)C2(C)C3CC4CCC3(CCC12)CC4(O)CO (single isomer, unassigned; ent-1) [Compound 1, ent-1α,3α,16β,17-tetrahydroxyatisane] | 125 µM | – | –
CCOC(=O)CC[C@]1(C)[C@@H](C(C)(C)O)CC[C@@]23CC[C@@H](C[C@H]21)[C@](O)(CO)C3 (single isomer, unassigned; ent-3) [Compound 2, ethyl ent-3,4-seco-4,16β,17-trihydroxyatisane-3-carboxylate] | 131 µM | – | –
CC(=O)O[C@H]1CC[C@@]2(C)C3C[C@@H]4CC[C@@]3(CC[C@@H]2C1(C)C)C[C@@]4(O)CO (single isomer, unassigned; ent-3) [Compound 4, ent-3α-acetoxy-16β,17-dihydroxyatisane] | 102 µM | – | –
CC1(C)OC[C@@]2(C[C@]34CC[C@H]2C[C@H]3[C@]2(C)CCC(=O)C(C)(C)[C@H]2CC4)O1 [Compound 3, ent-atisane-3-oxo-16β,17-acetonide] | 69.6 µM | noncompetitive inhibitor | 65.8 µM
CC1(C)C(=O)CC[C@@]2(C)[C@H]1CC[C@@]13C[C@H](CC[C@@H]12)[C@@](O)(CO)C3 [Compound 6, calliterpenone] | 156 µM | – | –
CC(=O)OC1C(C)C(=O)C23CC(C)C(O)C2(C=C(C)C(O)C(O)C2C1C2(C)C)O3 (centres unmarked) [Compound 7, ingol 12-acetate] | 115 µM | – | –
